Assays:
[1] = test system: wild type (RH) strain of T. gondii; assay: Anti-toxoplasmic activity in tissue culture; format: cell-based, Toxoplasma gondii; conditions: wild type (RH) in human fibroblasts
[2] = test system: uninfected human foreskin fibroblasts; assay: Host toxicity, MTT assay on uninfected host cells; conditions: infection: None
[3] = test system: adenosine kinase deficient (TgAK^-3) strain of T. gondii; assay: Anti-toxoplasmic activity in tissue culture; format: cell-based, Toxoplasma gondii; conditions: TgAK^-3 in human fibroblasts

OCC1CC(n2cnc3c(SCc4ccc(OC(F)(F)F)cc4)ncnc32)C(O)C1O (stereo not shown) [Compound 16, Carbocyclic 6-(p-trifluoromethoxybenzylthio)inosine]
percent survival of parasite ([1]; 5 μM compound): 87.3%
percent survival of parasite ([1]; 10 μM compound): 53.6%
percent survival of parasite ([1]; 25 μM compound): 8.1%
percent survival of parasite ([1]; 50 μM compound): 0.0%
host-toxicity (survival of uninfected host cells) ([2]; 5 μM compound): 100%
host-toxicity (survival of uninfected host cells) ([2]; 10 μM compound): 98.2%
host-toxicity (survival of uninfected host cells) ([2]; 25 μM compound): 96.7%
host-toxicity (survival of uninfected host cells) ([2]; 50 μM compound): 89.3%
percent survival of parasite ([3]; 5 μM compound): 100%
percent survival of parasite ([3]; 10 μM compound): 100%
percent survival of parasite ([3]; 25 μM compound): 100%
percent survival of parasite ([3]; 50 μM compound): 100%

Cc1ccc(CSc2ncnc3c2ncn3C2CC(CO)C(O)C2O)c(C)c1C (stereo not shown) [Compound 21, Carbocyclic 6-(o,m,p-trimethylbenzylthio)inosine]
percent survival of parasite ([1]; 5 μM compound): 71.0%
percent survival of parasite ([1]; 10 μM compound): 32.7%
percent survival of parasite ([1]; 25 μM compound): 0.0%
percent survival of parasite ([1]; 50 μM compound): 0.0%
host-toxicity (survival of uninfected host cells) ([2]; 5 μM compound): 100%
host-toxicity (survival of uninfected host cells) ([2]; 10 μM compound): 100%
host-toxicity (survival of uninfected host cells) ([2]; 25 μM compound): 90.6%
host-toxicity (survival of uninfected host cells) ([2]; 50 μM compound): 93.2%
percent survival of parasite ([3]; 5 μM compound): 100%
percent survival of parasite ([3]; 10 μM compound): 100%
percent survival of parasite ([3]; 25 μM compound): 100%
percent survival of parasite ([3]; 50 μM compound): 100%

OCC1CC(n2cnc3c(SCc4ccc(Cl)cc4)ncnc32)C(O)C1O (stereo not shown) [Compound 9, Carbocyclic 6-(p-chlorobenzylthio)inosine]
percent survival of parasite ([1]; 5 μM compound): 72.9%
percent survival of parasite ([1]; 10 μM compound): 11.9%
percent survival of parasite ([1]; 25 μM compound): 0.0%
percent survival of parasite ([1]; 50 μM compound): 0.0%
host-toxicity (survival of uninfected host cells) ([2]; 5 μM compound): 100%
host-toxicity (survival of uninfected host cells) ([2]; 10 μM compound): 100%
host-toxicity (survival of uninfected host cells) ([2]; 25 μM compound): 100%
host-toxicity (survival of uninfected host cells) ([2]; 50 μM compound): 100%
percent survival of parasite ([3]; 5 μM compound): 100%
percent survival of parasite ([3]; 10 μM compound): 100%
percent survival of parasite ([3]; 25 μM compound): 100%
percent survival of parasite ([3]; 50 μM compound): 100%

OCC1CC(n2cnc3c(SCc4c(F)cccc4Cl)ncnc32)C(O)C1O (stereo not shown) [Compound 20, Carbocyclic 6-(o-chloro-o-fluorobenzylthio)inosine]
percent survival of parasite ([1]; 5 μM compound): 56.3%
percent survival of parasite ([1]; 10 μM compound): 15.6%
percent survival of parasite ([1]; 25 μM compound): 3.7%
percent survival of parasite ([1]; 50 μM compound): 0.0%
host-toxicity (survival of uninfected host cells) ([2]; 5 μM compound): 100%
host-toxicity (survival of uninfected host cells) ([2]; 10 μM compound): 100%
host-toxicity (survival of uninfected host cells) ([2]; 25 μM compound): 100%
host-toxicity (survival of uninfected host cells) ([2]; 50 μM compound): 100%
percent survival of parasite ([3]; 5 μM compound): 100%
percent survival of parasite ([3]; 10 μM compound): 100%
percent survival of parasite ([3]; 25 μM compound): 100%
percent survival of parasite ([3]; 50 μM compound): 100%

N#Cc1ccc(CSc2ncnc3c2ncn3C2CC(CO)C(O)C2O)cc1 (stereo not shown) [Compound 13, Carbocyclic 6-(p-cyanobenzylthio)inosine]
percent survival of parasite ([1]; 5 μM compound): 100%
percent survival of parasite ([1]; 10 μM compound): 100%
percent survival of parasite ([1]; 25 μM compound): 48.8%
percent survival of parasite ([1]; 50 μM compound): 17.8%
host-toxicity (survival of uninfected host cells) ([2]; 5 μM compound): 100%
host-toxicity (survival of uninfected host cells) ([2]; 10 μM compound): 100%
host-toxicity (survival of uninfected host cells) ([2]; 25 μM compound): 100%
host-toxicity (survival of uninfected host cells) ([2]; 50 μM compound): 100%
percent survival of parasite ([3]; 5 μM compound): 100%
percent survival of parasite ([3]; 10 μM compound): 100%
percent survival of parasite ([3]; 25 μM compound): 100%
percent survival of parasite ([3]; 50 μM compound): 100%

OCC1CC(n2cnc3c(SCc4ccccc4Cl)ncnc32)C(O)C1O (stereo not shown) [Compound 3, Carbocyclic 6-(o-chlorobenzylthio)inosine]
percent survival of parasite ([1]; 5 μM compound): 79.5%
percent survival of parasite ([1]; 10 μM compound): 48.8%
percent survival of parasite ([1]; 25 μM compound): 9.8%
percent survival of parasite ([1]; 50 μM compound): 2.2%
host-toxicity (survival of uninfected host cells) ([2]; 5 μM compound): 100%
host-toxicity (survival of uninfected host cells) ([2]; 10 μM compound): 100%
host-toxicity (survival of uninfected host cells) ([2]; 25 μM compound): 100%
host-toxicity (survival of uninfected host cells) ([2]; 50 μM compound): 100%
percent survival of parasite ([3]; 5 μM compound): 100%
percent survival of parasite ([3]; 10 μM compound): 100%
percent survival of parasite ([3]; 25 μM compound): 100%
percent survival of parasite ([3]; 50 μM compound): 100%

COC(=O)c1ccc(CSc2ncnc3c2ncn3C2CC(CO)C(O)C2O)cc1 (stereo not shown) [Compound 14, Carbocyclic 6-(p-methoxycarbonylbenzylthio)inosine]
percent survival of parasite ([1]; 5 μM compound): 53.9%
percent survival of parasite ([1]; 10 μM compound): 6.3%
percent survival of parasite ([1]; 25 μM compound): 1.5%
percent survival of parasite ([1]; 50 μM compound): 0.0%
host-toxicity (survival of uninfected host cells) ([2]; 5 μM compound): 100%
host-toxicity (survival of uninfected host cells) ([2]; 10 μM compound): 99.4%
host-toxicity (survival of uninfected host cells) ([2]; 25 μM compound): 88.7%
host-toxicity (survival of uninfected host cells) ([2]; 50 μM compound): 87.1%
percent survival of parasite ([3]; 5 μM compound): 100%
percent survival of parasite ([3]; 10 μM compound): 100%
percent survival of parasite ([3]; 25 μM compound): 100%
percent survival of parasite ([3]; 50 μM compound): 100%

CCc1nc(N)nc(N)c1-c1ccc(Cl)cc1 [Compound 24, Pyrimethamine, reference compound]
percent survival of parasite ([1]; 5 μM compound): 98.9%
percent survival of parasite ([1]; 10 μM compound): 55.3%
percent survival of parasite ([1]; 25 μM compound): 25.1%
percent survival of parasite ([1]; 50 μM compound): 23.2%
host-toxicity (survival of uninfected host cells) ([2]; 5 μM compound): 101%
host-toxicity (survival of uninfected host cells) ([2]; 10 μM compound): 100%
host-toxicity (survival of uninfected host cells) ([2]; 25 μM compound): 108%
host-toxicity (survival of uninfected host cells) ([2]; 50 μM compound): 108%

O=[N+]([O-])c1cccc(CSc2ncnc3c2ncn3C2CC(CO)C(O)C2O)c1 (stereo not shown) [Compound 7, Carbocyclic 6-(m-nitrobenzylthio)inosine]
percent survival of parasite ([1]; 5 μM compound): 84.4%
percent survival of parasite ([1]; 10 μM compound): 50.9%
percent survival of parasite ([1]; 25 μM compound): 4.2%
percent survival of parasite ([1]; 50 μM compound): 0.0%
host-toxicity (survival of uninfected host cells) ([2]; 5 μM compound): 100%
host-toxicity (survival of uninfected host cells) ([2]; 10 μM compound): 100%
host-toxicity (survival of uninfected host cells) ([2]; 25 μM compound): 100%
host-toxicity (survival of uninfected host cells) ([2]; 50 μM compound): 100%
percent survival of parasite ([3]; 5 μM compound): 100%
percent survival of parasite ([3]; 10 μM compound): 100%
percent survival of parasite ([3]; 25 μM compound): 100%
percent survival of parasite ([3]; 50 μM compound): 100%

Cc1cccc(CSc2ncnc3c2ncn3C2CC(CO)C(O)C2O)c1 (stereo not shown) [Compound 5, Carbocyclic 6-(m-methylbenzylthio)inosine]
percent survival of parasite ([1]; 5 μM compound): 88.3%
percent survival of parasite ([1]; 10 μM compound): 64.7%
percent survival of parasite ([1]; 25 μM compound): 13.7%
percent survival of parasite ([1]; 50 μM compound): 1.2%
host-toxicity (survival of uninfected host cells) ([2]; 5 μM compound): 100%
host-toxicity (survival of uninfected host cells) ([2]; 10 μM compound): 100%
host-toxicity (survival of uninfected host cells) ([2]; 25 μM compound): 100%
host-toxicity (survival of uninfected host cells) ([2]; 50 μM compound): 96.1%
percent survival of parasite ([3]; 5 μM compound): 100%
percent survival of parasite ([3]; 10 μM compound): 100%
percent survival of parasite ([3]; 25 μM compound): 100%
percent survival of parasite ([3]; 50 μM compound): 100%

COc1ccc(CSc2ncnc3c2ncn3C2CC(CO)C(O)C2O)cc1 (stereo not shown) [Compound 15, Carbocyclic 6-(p-methoxybenzylthio)inosine]
percent survival of parasite ([1]; 5 μM compound): 48.3%
percent survival of parasite ([1]; 10 μM compound): 1.9%
percent survival of parasite ([1]; 25 μM compound): 0.0%
percent survival of parasite ([1]; 50 μM compound): 0.0%
host-toxicity (survival of uninfected host cells) ([2]; 5 μM compound): 100%
host-toxicity (survival of uninfected host cells) ([2]; 10 μM compound): 100%
host-toxicity (survival of uninfected host cells) ([2]; 25 μM compound): 94.3%
host-toxicity (survival of uninfected host cells) ([2]; 50 μM compound): 82.1%
percent survival of parasite ([3]; 5 μM compound): 98.4%
percent survival of parasite ([3]; 10 μM compound): 100%
percent survival of parasite ([3]; 25 μM compound): 100%
percent survival of parasite ([3]; 50 μM compound): 100%

OCC1CC(n2cnc3c(SCc4ccc(Cl)cc4Cl)ncnc32)C(O)C1O (stereo not shown) [Compound 18, Carbocyclic 6-(o,p-dichlorobenzylthio)inosine]
percent survival of parasite ([1]; 5 μM compound): 84.4%
percent survival of parasite ([1]; 10 μM compound): 45.1%
percent survival of parasite ([1]; 25 μM compound): 0.0%
percent survival of parasite ([1]; 50 μM compound): 0.0%
host-toxicity (survival of uninfected host cells) ([2]; 5 μM compound): 100%
host-toxicity (survival of uninfected host cells) ([2]; 10 μM compound): 100%
host-toxicity (survival of uninfected host cells) ([2]; 25 μM compound): 100%
host-toxicity (survival of uninfected host cells) ([2]; 50 μM compound): 90.6%
percent survival of parasite ([3]; 5 μM compound): 100%
percent survival of parasite ([3]; 10 μM compound): 100%
percent survival of parasite ([3]; 25 μM compound): 100%
percent survival of parasite ([3]; 50 μM compound): 100%

OCC1CC(n2cnc3c(SCc4cccc(C(F)(F)F)c4)ncnc32)C(O)C1O (stereo not shown) [Compound 6, Carbocyclic 6-(m-trifluoromethylbenzylthio)inosine]
percent survival of parasite ([1]; 5 μM compound): 79.0%
percent survival of parasite ([1]; 10 μM compound): 47.1%
percent survival of parasite ([1]; 25 μM compound): 6.3%
percent survival of parasite ([1]; 50 μM compound): 1.0%
host-toxicity (survival of uninfected host cells) ([2]; 5 μM compound): 100%
host-toxicity (survival of uninfected host cells) ([2]; 10 μM compound): 100%
host-toxicity (survival of uninfected host cells) ([2]; 25 μM compound): 100%
host-toxicity (survival of uninfected host cells) ([2]; 50 μM compound): 90.6%
percent survival of parasite ([3]; 5 μM compound): 100%
percent survival of parasite ([3]; 10 μM compound): 100%
percent survival of parasite ([3]; 25 μM compound): 100%
percent survival of parasite ([3]; 50 μM compound): 100%

Nc1ccc(S(=O)(=O)Nc2ncccn2)cc1 [Compound 23, Sulfadiazine, reference compound]
percent survival of parasite ([1]; 5 μM compound): 92.9%
percent survival of parasite ([1]; 10 μM compound): 58.0%
percent survival of parasite ([1]; 25 μM compound): 53.4%
percent survival of parasite ([1]; 50 μM compound): 46.3%
host-toxicity (survival of uninfected host cells) ([2]; 5 μM compound): 98.2%
host-toxicity (survival of uninfected host cells) ([2]; 10 μM compound): 99.8%
host-toxicity (survival of uninfected host cells) ([2]; 25 μM compound): 99.8%
host-toxicity (survival of uninfected host cells) ([2]; 50 μM compound): 102%

O=[N+]([O-])c1ccc(CSc2ncnc3c2ncn3C2CC(CO)C(O)C2O)cc1 (stereo not shown) [Compound 12, Carbocyclic 6-(p-nitrobenzylthio)inosine]
percent survival of parasite ([1]; 5 μM compound): 100%
percent survival of parasite ([1]; 10 μM compound): 97.6%
percent survival of parasite ([1]; 25 μM compound): 44.2%
percent survival of parasite ([1]; 50 μM compound): 16.8%
host-toxicity (survival of uninfected host cells) ([2]; 5 μM compound): 100%
host-toxicity (survival of uninfected host cells) ([2]; 10 μM compound): 100%
host-toxicity (survival of uninfected host cells) ([2]; 25 μM compound): 100%
host-toxicity (survival of uninfected host cells) ([2]; 50 μM compound): 100%
percent survival of parasite ([3]; 5 μM compound): 100%
percent survival of parasite ([3]; 10 μM compound): 100%
percent survival of parasite ([3]; 25 μM compound): 100%
percent survival of parasite ([3]; 50 μM compound): 100%
